From ChEMBL document CHEMBL5518159, “Thiazole-based analogues as potential antibacterial agents against methicillin-resistant Staphylococcus aureus (MRSA) and their SAR elucidation” (Eur J Med Chem, 2023) come the findings set out here.

Converted amounts (≈) assume the structure as drawn.

For assay [1], the system named is Staphylococcus aureus. As to the kind of experiment: Antibacterial activity against […] Staphylococcus aureus ATCC 29213 assessed as reduction in bacterial growth incubated for 16 to 20 hrs by CLSI based two-fold serial dilution method. The class given is functional. As to conditions: time 16-20 hrs.
Assay [2] concerns Escherichia coli. As to the kind of experiment: Antibacterial activity against Escherichia coli ATCC 35210 assessed as reduction in microbial growth. It is filed as functional.
Assay [3] has as its system Staphylococcus aureus. As to the kind of experiment: Antibacterial activity against vancomycin-resistant Staphylococcus aureus assessed as bacterial growth inhibition incubated for 18 to 24 hrs by CLSI-based microdilution method. It is filed as functional. The note with it: time 18-24 hrs. (Broth dilution looks for growth in wells or tubes with falling amounts of substance.)

Assay [4] has as its system Staphylococcus aureus. As to the kind of experiment: Antibacterial activity against methicillin-resistant Staphylococcus aureus assessed as inhibition of bacterial growth measured after 24 hrs by broth micro-dilution method. It is filed as functional.
Assay [5] concerns Staphylococcus aureus. The assay is described as follows: Antibacterial activity against Methicillin-resistant Staphylococcus aureus AUMC 261 assessed as bacterial growth inhibition incubated for 24 hrs by broth microdilution analysis. It is filed as functional.
Assay [6] deals with Staphylococcus aureus. As to the kind of experiment: Antibacterial activity against Staphylococcus aureus ATCC 43300 assessed as microbial inhibition incubated for 24 hrs by broth micro-dilution method. It is filed as functional.
For assay [7], the target named is DNA gyrase (Staphylococcus aureus, UniProt P0A0K8+P20831). The assay is described as follows: Inhibition of Staphylococcus aureus DNA gyrase incubated for 30 mins by fluorescence based analysis. The class given is protein-complex assay.
For assay [8], the system named is Staphylococcus aureus. The assay is described as follows: Antimicrobial activity against methicillin-resistant Staphylococcus aureus assessed as inhibition of microbial growth incubated for 16 hrs by microdilution method. The class given is functional, organism-based.
In assay [9] the test system is Escherichia coli. The assay is described as follows: Antibacterial activity against Escherichia coli ATCC 25922 assessed as reduction in bacterial growth incubated for 18 to 24 hrs by broth microdilution method. As to conditions: time 18-24 hrs. It is filed as functional.
For assay [10], the system named is Staphylococcus aureus. As to the kind of experiment: Antibacterial activity against Methicillin-resistant Staphylococcus aureus […] assessed as reduction in microbial growth incubated for 18 to 24 hrs by broth micro-dilution method. It is filed as functional. As to conditions: time 18-24 hrs.
Assay [11] concerns Staphylococcus aureus. As to the kind of experiment: Antibacterial activity against […] Staphylococcus aureus ATCC 6538 assessed as bacterial growth inhibition incubated for 24 hrs by broth micro-dilution method. It is filed as functional.
For assay [12], the system named is Escherichia coli. As to the kind of experiment: Antibacterial activity against Escherichia coli ATCC 35210 assessed as reduction in bacterial growth measured for 24 hrs by broth micro-dilution method. The class given is functional.
Assay [13] deals with Escherichia coli. As to the kind of experiment: Antibacterial activity against Escherichia coli ATCC 25922 assessed as reduction in bacterial growth by broth microdilution method. The class given is functional.
Assay [14] relates to Staphylococcus aureus. As to the kind of experiment: Antibacterial activity against methicillin-resistant Staphylococcus aureus ATCC 33592 assessed as reduction in bacterial growth. The class given is functional.
Assay [15] has as its system Staphylococcus aureus. The assay is described as follows: Antibacterial activity against Methicillin-resistant Staphylococcus aureus […] assessed as reduction in microbial growth. The class given is functional.
In assay [16] the test system is Escherichia coli. As to the kind of experiment: Antibiofilm activity against Escherichia coli ATCC 25922 assessed as reduction in biofilm formation at 50 uM incubated for 24 hrs by crystal violet staining based analysis relative to control. It is filed as functional. The arrangement: scale not given: the % may be the effect or the level left.
Assay [17] concerns Staphylococcus aureus. As to the kind of experiment: Antibacterial activity against Staphylococcus aureus ATCC 49444 assessed as reduction in microbial growth. It is filed as functional.
Assay [18] relates to Staphylococcus aureus. As to the kind of experiment: Antibacterial activity against Methicillin-sensitive Staphylococcus aureus ATCC 6538 assessed as reduction in microbial growth. The class given is functional.
In assay [19] the test system is Pseudomonas aeruginosa. The assay is described as follows: Antibacterial activity against Pseudomonas aeruginosa assessed as reduction in bacterial growth by broth microdilution method. It is filed as functional.
Assay [20] has as its system Escherichia coli. The assay is described as follows: Antibacterial activity against Escherichia coli ATCC 35210 assessed as reduction in bacterial growth by broth microdilution method. The class given is functional.
Assay [21] concerns Staphylococcus aureus. As to the kind of experiment: Antibacterial activity against Methicillin-resistant Staphylococcus aureus assessed as reduction of microbial growth by Muller Hinton broth based dilution assay. It is filed as functional.
Assay [22] concerns Staphylococcus aureus. As to the kind of experiment: Antibacterial activity against […] Staphylococcus aureus ATCC 6538 assessed as reduction in bacterial growth incubated for 24 hrs by broth micro-dilution method. It is filed as functional.
For assay [23], the system named is Staphylococcus aureus. As to the kind of experiment: Antibacterial activity against clinical isolate Methicillin resistant Staphylococcus aureus 2658 RCMB assessed as reduction in microbial growth incubated for 16 to 24 hrs by CLSI-based Muller Hinton broth based microdilution method. As to conditions: time 16-24 hrs. The class given is functional.
The subject of assay [24] is Staphylococcus aureus. As to the kind of experiment: Antimicrobial activity against Methicillin-resistant Staphylococcus aureus ATCC 43300 assessed as bacterial growth inhibition incubated for 18 hrs by broth micro-dilution method. The class given is functional.
For assay [25], the system named is Staphylococcus aureus. The assay is described as follows: Antibacterial activity against Methicillin-resistant Staphylococcus aureus ATCC 43300 assessed as reduction in bacterial growth measured for 24 hrs by CLSI based broth microdilution method. It is filed as functional.
For assay [26], the system named is Staphylococcus aureus. As to the kind of experiment: Antibacterial activity against Methicillin-sensitive Staphylococcus aureus ATCC 43300 assessed as reduction in microbial growth by CLSI based broth microdilution method. It is filed as functional.

Sequence of DNA gyrase (P0A0K8 whole entry): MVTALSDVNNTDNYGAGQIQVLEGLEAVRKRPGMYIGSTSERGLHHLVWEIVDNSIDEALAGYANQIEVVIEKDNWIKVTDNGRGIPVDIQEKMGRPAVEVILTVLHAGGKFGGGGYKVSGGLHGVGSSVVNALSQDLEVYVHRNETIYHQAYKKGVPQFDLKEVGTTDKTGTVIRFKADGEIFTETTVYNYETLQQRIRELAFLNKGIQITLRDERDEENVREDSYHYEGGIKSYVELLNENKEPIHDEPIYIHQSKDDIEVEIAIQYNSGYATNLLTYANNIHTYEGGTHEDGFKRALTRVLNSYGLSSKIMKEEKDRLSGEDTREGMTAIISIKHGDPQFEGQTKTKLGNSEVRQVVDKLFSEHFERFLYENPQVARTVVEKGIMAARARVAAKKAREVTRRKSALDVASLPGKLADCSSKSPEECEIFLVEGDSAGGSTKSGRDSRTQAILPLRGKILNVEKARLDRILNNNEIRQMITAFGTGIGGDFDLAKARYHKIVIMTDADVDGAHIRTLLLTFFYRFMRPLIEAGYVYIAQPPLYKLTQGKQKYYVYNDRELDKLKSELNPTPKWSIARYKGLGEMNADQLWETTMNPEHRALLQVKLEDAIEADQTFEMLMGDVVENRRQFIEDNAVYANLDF
Sequence of DNA gyrase (P20831 whole entry): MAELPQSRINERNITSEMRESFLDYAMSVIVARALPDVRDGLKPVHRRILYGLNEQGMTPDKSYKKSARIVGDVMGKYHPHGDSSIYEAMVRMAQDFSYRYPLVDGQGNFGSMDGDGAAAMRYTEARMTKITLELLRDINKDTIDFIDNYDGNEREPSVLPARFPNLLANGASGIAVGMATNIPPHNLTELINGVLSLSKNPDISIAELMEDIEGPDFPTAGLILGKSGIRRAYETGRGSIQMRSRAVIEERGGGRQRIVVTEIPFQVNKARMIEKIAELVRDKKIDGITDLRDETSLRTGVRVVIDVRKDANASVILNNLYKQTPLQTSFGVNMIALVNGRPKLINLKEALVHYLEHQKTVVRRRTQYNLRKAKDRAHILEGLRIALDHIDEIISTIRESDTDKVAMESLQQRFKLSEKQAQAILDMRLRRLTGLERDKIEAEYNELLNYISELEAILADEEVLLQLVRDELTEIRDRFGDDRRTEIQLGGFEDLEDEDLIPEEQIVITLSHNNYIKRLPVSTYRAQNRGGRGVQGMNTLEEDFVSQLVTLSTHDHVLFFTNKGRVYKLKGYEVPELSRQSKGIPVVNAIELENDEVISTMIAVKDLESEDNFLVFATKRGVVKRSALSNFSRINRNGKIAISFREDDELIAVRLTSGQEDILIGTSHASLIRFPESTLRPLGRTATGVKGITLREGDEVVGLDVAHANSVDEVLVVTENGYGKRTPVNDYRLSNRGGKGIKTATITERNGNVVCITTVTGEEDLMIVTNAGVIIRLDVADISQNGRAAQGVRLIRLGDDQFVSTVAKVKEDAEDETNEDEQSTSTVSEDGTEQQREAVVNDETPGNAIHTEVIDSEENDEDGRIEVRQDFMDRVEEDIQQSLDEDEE

Turning to `CCCCCCNc1ccc(S(=O)(=O)CC(=O)c2nccs2)cc1`, the MIC (in general, the lowest concentration found to suppress growth) in assay [1] came to 1 µg/mL (≈ 2.73 µM).

`CCc1nc(N2CCN(CC(=O)Nc3nccs3)CC2)c(C#N)c2c1COC(C)(C)C2`: the MIC in assay [2] was 230 µg/mL.

In the case of `O=C(O)CCN(c1ccc(Nc2ccccc2)cc1)c1nc(-c2ccc(F)cc2)cs1`, the MIC in assay [3] was 1 µg/mL (≈ 2.31 µM).

In the case of `Cc1cnc(/C=c2\[nH]c(=O)/c(=C\c3cccc(F)c3)s2)s1`, in assay [4], the MIC worked out at 40 µg/mL (≈ 126 µM).

With `CCCCCNc1ccc(S(=O)(=O)CC(=O)c2nccs2)cc1`, the minimal inhibitory concentration (MIC) in [1] is 1 µg/mL (≈ 2.84 µM).

Regarding `O=C(O)c1cn(C2CC2)c2cc(N3CCN(C(=O)CN4C(=O)S/C(=C\c5ccc(F)cc5)C4=O)CC3)c(F)cc2c1=O`, the MIC in assay [5] is 2.88 µg/mL (≈ 4.84 µM).

As to `O=S(=O)(c1ccc2nc3s/c(=N/N=C\c4cccs4)n(-c4ccc(Cl)cc4)c3nc2c1)N1CCOCC1`, in assay [6], the MIC stood at 1.25 µg/mL (≈ 2.19 µM). Besides, it took 10.4 µM to reach half-maximal inhibition in [7] (IC50).

Take `CO/N=C(/COc1ccc2c(C)cc(=O)oc2c1)c1nccs1`: the IC50 (commonly the midpoint of a concentration-inhibition curve) in assay [8] was 1 µg/mL.

Turning to `COc1ccc(N/N=C2/S/C(=N\N=C3/C(=O)Nc4ccc(Br)cc43)N=C2C)cc1`, the MIC in assay [9] turned out to be 1 µg/mL (≈ 2.12 µM); in assay [10] it was 1 µg/mL.

For `COc1ccc(/C=c2/s/c(=C/c3ncc(C)s3)[nH]c2=O)cc1`, in assay [4], the MIC came to 40 µg/mL (≈ 121 µM).

Turning to `CCOc1ccc2nc(N3C(=O)CSC3c3ccc(OC)cc3)sc2c1` (configuration not stated), the MIC in assay [11] came out at 90 µg/mL (≈ 233 µM).

Turning to `Cc1[nH]c2ccc(Cl)cc2c1-c1csc(N)n1`, the MIC in [12] was determined as 60 µg/mL (≈ 227 µM); in assay [13] it was 60 µg/mL (≈ 227 µM); in assay [14], 100 µg/mL (≈ 379 µM); in assay [15], 230 µg/mL.

For the compound `CCOC1=NC(=N/N=C2\C(=O)Nc3ccc(Br)cc32)/S/C1=N/Nc1ccccc1`, the MIC amounted to 4 µg/mL (≈ 8.49 µM) in assay [9] and 8 µg/mL in [10]. In addition, in [16], the Activity is given as 90%.

For the compound `O=c1c2ccccc2nc(C(c2nccs2)c2nccs2)n1-c1ccc(F)cc1`, the MIC in assay [17] was found to be 32 µg/mL.

With `COc1cc(CCN)c(-c2csc(-c3ccc(O)cc3)n2)cc1OC`, the MIC in assay [18] was 700 µg/mL; in assay [19], under 230 µg/mL; in [20], under 230 µg/mL.

Take `O=C(/C(=C/c1ccc(-c2ccc(Cl)cc2Cl)cc1)Oc1ccc2c(CN(CCO)CCO)cc(=O)oc2c1)c1nccs1`: the MIC in assay [21] amounted to 4 µg/mL.

With `N#Cc1c(N2CCN(CC(=O)Nc3nccs3)CC2)nc(-c2ccco2)c2c1CCC2`, the MIC in assay [2] was 230 µg/mL.

As to `O=C1CSC(c2ccc([N+](=O)[O-])cc2)N1c1nc2ccc(Cl)cc2s1` (configuration not stated), the MIC in [22] came to 100 µg/mL (≈ 255 µM).

In the case of `O=C1CSC(c2ccc([N+](=O)[O-])cc2)N1c1nc2c(Cl)cccc2s1` (configuration not stated), in [11], the minimum inhibitory concentration (MIC) was 90 µg/mL (≈ 230 µM).

`O=C(/C(=C/c1ccc(-c2ccc([N+](=O)[O-])cc2)cc1)Oc1ccc2c(CN(CCO)CCO)cc(=O)oc2c1)c1nccs1`: the MIC in assay [21] was 4 µg/mL.

`Cc1nc(-c2ccc3ccccc3c2)sc1-c1nnc(NC(=N)N2CCN(C)CC2)o1`: the MIC in [23] is 1.9 µg/mL.

Regarding `O=C(O)c1cn(C2CC2)c2cc(N3CCN(C(=O)CN4C(=O)S/C(=C\c5ccc([N+](=O)[O-])cc5)C4=O)CC3)c(F)cc2c1=O`, the MIC in assay [5] was 2.88 µg/mL (≈ 4.63 µM).

As for `CC(C)Cc1nc(N2CCN(CC(=O)Nc3nccs3)CC2)c(C#N)c2c1CCC2`, in assay [2], the MIC stood at 230 µg/mL.

Consider `O=C(O)c1cn(C2CC2)c2cc(N3CCNCC3)c(F)cc2c1=O` [CIPROFLOXACIN], for which the MIC in assay [5] worked out at 0.2 µg/mL (≈ 0.604 µM); in [24], 32 µg/mL (≈ 96.6 µM).

For `CN[C@H](CC(C)C)C(=O)N[C@H]1C(=O)N[C@@H](CC(N)=O)C(=O)N[C@H]2C(=O)N[C@H]3C(=O)N[C@H](C(=O)N[C@H](C(=O)O)c4cc(O)cc(O)c4-c4cc3ccc4O)[C@H](O)c3ccc(c(Cl)c3)Oc3cc2cc(c3O[C@@H]2O[C@H](CO)[C@@H](O)[C@H](O)[C@H]2O[C@H]2C[C@](C)(N)[C@H](O)[C@H](C)O2)Oc2ccc(cc2Cl)[C@H]1O` [VANCOMYCIN], the MIC50 (usually the lowest concentration that inhibits either 50% of growth or 50% of the strains tested, depending on the study) in assay [25] was determined as 4 µg/mL (≈ 2.76 µM). Besides, the MIC90 (usually the lowest concentration that inhibits either 90% of growth or 90% of the strains tested, depending on the study) in [26] was 16 µg/mL. Further, the MIC in assay [4] came to 1.95 µg/mL (≈ 1.35 µM).
